Data: US12577247B2 (BUGWORKS RESEARCH, INC., priority 2021, dated 2026)

Tests used:
A2A receptor = target: T1, A2A receptor (Homo sapiens, UniProt P29274); test: A2aR antagonism IC50, cAMP TR-FRET in HEK-293 cells, high concentration of adenosine (30 μM); type: cell-based; conditions: HEK-293 cells expressing A2A receptor; agonist adenosine 30 μM; 2% HSA; inhibition of cAMP; read-out: A2AR IC50 (nM) (@30 μM Adenosine);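 further: compounds added 10 min before adenosine, then 30 min stimulation at room temperature in buffer with 100 µM rolipram and 30 µM EHNA, signal read 1 h after detection reagents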
T1 construct: host or cells: HEK-293

A2B receptor = target: T2, A2B receptor (Homo sapiens, UniProt P29275); test: A2bR antagonism IC50, cAMP TR-FRET in HEK-293 cells, high concentration of adenosine (30 μM); conditions: A2BR IC50 (nM) (@30 μM Adenosine), HEK-293 cells expressing A2B receptor; agonist adenosine 30 μM; 2% HSA; inhibition of cAMP;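 further: compounds preincubated 10 min with cells, then adenosine stimulation 30 min at room temperature in buffer with Rolipram 100 µM and EHNA 30 µM, TR-FRET read after 1 h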
T2 sequence (P29275 1-332): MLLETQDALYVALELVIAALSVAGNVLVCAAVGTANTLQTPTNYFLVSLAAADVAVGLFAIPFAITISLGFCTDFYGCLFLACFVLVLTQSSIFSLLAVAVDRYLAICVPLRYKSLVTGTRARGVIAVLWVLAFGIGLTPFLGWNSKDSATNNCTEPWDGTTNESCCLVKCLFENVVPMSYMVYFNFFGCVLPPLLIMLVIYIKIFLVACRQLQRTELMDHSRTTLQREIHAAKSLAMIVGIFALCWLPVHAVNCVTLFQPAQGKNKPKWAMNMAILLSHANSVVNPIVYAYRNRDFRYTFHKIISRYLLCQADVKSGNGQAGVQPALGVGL

T1 sequence (P29274 whole entry): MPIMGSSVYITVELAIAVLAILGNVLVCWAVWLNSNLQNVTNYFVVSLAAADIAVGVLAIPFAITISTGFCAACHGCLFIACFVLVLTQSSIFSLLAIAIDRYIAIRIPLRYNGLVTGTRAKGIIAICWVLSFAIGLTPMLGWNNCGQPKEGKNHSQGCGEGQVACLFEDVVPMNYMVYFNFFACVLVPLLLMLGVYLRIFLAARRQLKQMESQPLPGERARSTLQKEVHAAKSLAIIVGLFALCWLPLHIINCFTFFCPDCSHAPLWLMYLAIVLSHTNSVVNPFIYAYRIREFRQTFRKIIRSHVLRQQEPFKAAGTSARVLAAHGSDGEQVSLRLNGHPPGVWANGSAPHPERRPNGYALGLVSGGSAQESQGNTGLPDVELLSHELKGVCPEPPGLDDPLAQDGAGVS

Compound	IC50 (A2A receptor) [nM]	IC50 (A2B receptor) [nM]
CCc1c(C)nn2c(N)c(C#N)c(NCCc3ccn(C4COCC4CO)n3)nc12 (single isomer, unassigned; (+)) [Example 122a, (+)-7-amino-3-ethyl-5-((2-(1-(4-(hydroxymethyl)tetrahydrofuran-3-yl)-1H-pyrazol-3-yl)ethyl)amino)-2-methyl pyrazolo[1,5-a]pyrimidine-6-carbonitrile]	289	707
Cc1nn2c(N)c(C#N)c(NCCc3ccn(C4(CNC(=O)CCO)CC4)n3)nc2c1Cl [Example 99, N-((1-(3-(2-((7-amino-3-chloro-6-cyano-2-methylpyrazolo[1,5-a]pyrimidin-5-yl)amino)ethyl)-1H-pyrazol-1-yl)cyclopropyl)methyl)-3-hydroxypropanamide]	69	20000
CCc1c(C(F)F)nn2c(N)c(C#N)c(NCCc3ccn(C4CCC4CO)n3)nc12 (centres unmarked) [Example 102, 7-amino-2-(difluoromethyl)-3-ethyl-5-((2-(1-(2-(hydroxymethyl)cyclobutyl)-1H-pyrazol-3-yl)ethyl)amino) pyrazolo[1,5-a]pyrimidine-6-carbonitrile]	804	8300
Cc1nn2c(N)c(C#N)c(NCCc3ccn(C4CCC4CO)n3)nc2c1CC1CC1 (centres unmarked) [Example 116, 7-amino-3-(cyclopropylmethyl)-5-((2-(1-(2-(hydroxymethyl)cyclobutyl)-1H-pyrazol-3-yl)ethyl)amino)-2-methylpyrazolo[1,5-a]pyrimidine-6-carbonitrile]	427	2100
Cc1nn2c(N)c(C#N)c(NCCc3ccn(CC4CC(O)C4)n3)nc2c1Cl (single isomer, unassigned; (+)) [Example 83, (+)-7-amino-3-chloro-5-((2-(1-((3-hydroxycyclobutyl)methyl)-1H-pyrazol-3-yl)ethyl)amino)-2-methylpyrazolo[1,5-a]pyrimidine-6-carbonitrile]	109	2650
Cc1cccc(CCNc2nc3c(Cl)c(C)nn3c(N)c2C#N)n1 [Example 119, 7-amino-3-chloro-2-methyl-5-((2-(6-methylpyridin-2-yl)ethyl)amino) pyrazolo[1,5-a]pyrimidine-6-carbonitrile]	260	3410
Cc1nn2c(N)c(C#N)c(NCCc3cccc(CO)n3)nc2c1Br [Example 72, 7-amino-3-bromo-5-((2-(6-(hydroxymethyl)pyridine-2-yl)ethyl)amino)-2-methylpyrazolo[1,5-a]pyrimidine-6-carbonitrile]	362	3120
Cc1nn2c(N)c(C#N)c(NCCc3ccn(C4CCC4CO)n3)nc2c1C (single isomer, unassigned; (+)) [Example 104a, (+)-7-amino-5-((2-(1-(2-(hydroxymethyl)cyclobutyl)-1H-pyrazol-3-yl)ethyl)amino)-2,3-dimethylpyrazolo[1,5-a]pyrimidine-6-carbonitrile]	88	2260
Cc1nn2c(N)c(C#N)c(NCCc3cc(C)n(C4(CO)CC4)n3)nc2c1Cl [Example 75, 7-amino-3-chloro-5-((2-(1-(1-(hydroxymethyl)cyclopropyl)-5-methyl-1H-pyrazol-3-yl)ethyl)amino)-2-methylpyrazolo[1,5-a]pyrimidine-6-carbonitrile]	43	7150
Cc1nn2c(N)c(C#N)c(NCCc3ccn(C4(CO)CC4)n3)nc2c1Br [Example 69, 7-amino-3-bromo-5-((2-(1-(1-(hydroxymethyl)cyclopropyl)-1H-pyrazol-3-yl)ethyl)amino)-2-methylpyrazolo[1,5-a]pyrimidine-6-carbonitrile]	68	2050
Cc1nn2c(N)c(C#N)c(NCCc3ccn(C4CCC4CO)n3)nc2c1C (racemic) [Example 103, (+−)-7-amino-5-((2-(1-(2-(hydroxymethyl)cyclobutyl)-1H-pyrazol-3-yl)ethyl)amino)-2,3-dimethylpyrazolo[1,5-a] pyrimidine-6-carbonitrile]	100	2590

Continued, values first:

IC50 (A2A receptor) [nM]	IC50 (A2B receptor) [nM]	Compound
2770	3970	CCc1c(C)nn2c(N)c(C#N)c(NCCc3ccn(CCCSC)n3)nc12 [Example 161, 7-amino-3-ethyl-2-methyl-5-((2-(1-(3-(methylthio)propyl)-1H-pyrazol-3-yl)ethyl)amino)pyrazolo[1,5-a]pyrimidine-6-carbonitrile]
8260	> 15000	CCCc1c(C)nn2c(N)c(C#N)c(NCCc3cccc(C)n3)nc12 [Example 164, 7-amino-2-methyl-5-((2-(6-methylpyridin-2-yl)ethyl)amino)-3-propylpyrazolo[1,5-a]pyrimidine-6-carbonitrile]
82	12200	CCc1c(C)nn2c(N)c(C#N)c(NCCc3ccn(C4(CNCC[S+](C)[O-])CC4)n3)nc12 (single isomer, unassigned; (+)) [Example 163b, (+)-7-amino-3-ethyl-2-methyl-5-((2-(1-(1-(((2-(methylsulfinyl)ethyl)amino)methyl)cyclopropyl)-1H-pyrazol-3-yl)ethyl)amino) pyrazolo[1,5-a]pyrimidine-6-carbonitrile]
1540	9160	CCCc1c(C)nn2c(N)c(C#N)c(NCCc3ccn(C4CCC4CO)n3)nc12 (single isomer, unassigned; (-)) [Example 165b, (−)-7-amino-5-((2-(1-(2-(hydroxymethyl)cyclobutyl)-1H-pyrazol-3-yl)ethyl)amino)-2-methyl-3-propylpyrazolo[1,5-a]pyrimidine-6-carbonitrile]
805	3350	CCCc1c(C)nn2c(N)c(C#N)c(NCCc3ccn(C4(CO)CC4)n3)nc12 [Example 158, 7-amino-5-((2-(1-(1-(hydroxymethyl)cyclopropyl)-1H-pyrazol-3-yl)ethyl)amino)-2-methyl-3-propylpyrazolo[1,5-a]pyrimidine-6-carbonitrile]
139	911	CCc1c(C)nn2c(N)c(C#N)c(NCCc3cccc(C(C)O)n3)nc12 (single isomer, unassigned; (+)) [Example 159a, (+)-7-amino-3-ethyl-5-((2-(6-(1-hydroxyethyl)pyridin-2-yl)ethyl)amino)-2-methylpyrazolo[1,5-a]pyrimidine-6-carbonitrile]
767	> 15000	Cc1nn2c(N)c(C#N)c(NCCc3cccn(CCN)c3=O)nc2c1Cl [Example 125, 7-amino-5-((2-(1-(2-aminoethyl)-2-oxo-1,2-dihydropyridin-3-yl)ethyl)amino)-3-chloro-2-methylpyrazolo[1,5-a] pyrimidine-6-carbonitrile]
1670	2930	CCCc1c(C)nn2c(N)c(C#N)c(NCCc3cccc(CO)n3)nc12 [Example 157, 7-amino-5-((2-(6-(hydroxymethyl)397yridine-2-yl)ethyl)amino)-2-methyl-3-propylpyrazolo[1,5-a]pyrimidine-6-carbonitrile]
363	9080	CCc1c(C)nn2c(N)c(C#N)c(NCCc3ccn(C4(CNC(C)=O)CC4)n3)nc12 [Example 147, N-((1-(3-(2-((7-amino-6-cyano-3-ethyl-2-methylpyrazolo[1,5-a]pyrimidin-5-yl)amino)ethyl)-1H-pyrazol-1-yl)cyclopropyl)methyl) acetamide]
405	1580	CCc1c(C)nn2c(N)c(C#N)c(NCCc3ccn(C4CC(CO)C4)n3)nc12 (centres unmarked) [Example 123, 7-amino-3-ethyl-5-((2-(1-(3-(hydroxymethyl)cyclobutyl)-1H-pyrazol-3-yl)ethyl)amino)-2-methylpyrazolo[1,5-a]pyrimidine-6-carbonitrile]
294	1130	CCc1c(C)nn2c(N)c(C#N)c(NCCc3cccn(CCCNC(C)=O)c3=O)nc12 [Example 145, N-(3-(3-(2-((7-amino-6-cyano-3-ethyl-2-methylpyrazolo[1,5-a]pyrimidin-5-yl)amino)ethyl)-2-oxopyridin-1(2H)-yl)propyl) acetamide]
368	1110	CCc1c(C)nn2c(N)c(C#N)c(NCCc3cccn(CC4CC(O)C4)c3=O)nc12 (centres unmarked) [Example 128, 7-amino-3-ethyl-5-((2-(1-((3-hydroxycyclobutyl)methyl)-2-oxo-1,2-dihydropyridin-3-yl)ethyl)amino)-2-methylpyrazolo[1,5-a]pyrimidine-6-carbonitrile]
750	2950	CCCc1c(C)nn2c(N)c(C#N)c(NCCc3cccn(CCCO)c3=O)nc12 [Example 156, 7-amino-5-((2-(1-(3-hydroxypropyl)-2-oxo-1,2-dihydropyridin-3-yl)ethyl)amino)-2-methyl-3-propylpyrazolo[1,5-a]pyrimidine-6-carbonitrile]
1050	1540	CCc1c(C)nn2c(N)c(C#N)c(NCCc3cccn(CCC[S+](C)[O-])c3=O)nc12 (single isomer, unassigned; (-)) [Example 154a, (−)-7-amino-3-ethyl-2-methyl-5-((2-(1-(3-(methylsulfinyl)propyl)-2-oxo-1,2-dihydropyridin-3-yl)ethyl)amino) pyrazolo[1,5-a]pyrimidine-6-carbonitrile]
